Tests used:
CYP1A2 mRNA = CYP1A2 mRNA induction in cryopreserved human hepatocytes; type: in vitro ADME; conditions: positive control inducer; human hepatocytes
Description: (§1) The induction potential of Compound A on CYP enzymes was assessed in cryopreserved human hepatocytes from three donors. Following treatment for with Compound A at concentrations of 0.03-30 μM for 48 hours, mRNA levels for CYP1A2, 2B6, 2C8, 2C9, 2C19, and 3A4 were determined by semiquantitative real-time polymerase chain reaction (PCR). Test article concentrations during 24-hour incubation were determined. The potential of Compound A to cause direct and time-dependent inhibition (TDI) of the activities of CYP1A2, 2B6, 2C8, 2C9, 2C19, 2D6, and 3A4 was evaluated in pooled human liver microsomes (HLM) at 0.2-15 μM. Probe substrate concentrations around Km were used for direction inhibition and initial TDI assays. For TDI assay, Compound A was pre-incubated with pooled HLM with and without NADPH for 30 minutes prior to incubation with a single concentration of probe substrate.

CYP2B6 mRNA = CYP2B6 mRNA induction in cryopreserved human hepatocytes; type: in vitro ADME; conditions: positive control inducer; human hepatocytes
Description: as §1

SMILES	CYP1A2 mRNA Fold induction, PC (CYP1A2 mRNA)	CYP2B6 mRNA Fold induction, PC (CYP2B6 mRNA)
COc1ccc2[nH]c([S+]([O-])Cc3ncc(C)c(OC)c3C)nc2c1 (centres unmarked) [Omeprazole, reference compound]	77-88 Fold	–
CCC1(c2ccccc2)C(=O)NC(=O)NC1=O [Phenobarbital, reference compound]	–	14-25 Fold
